From ChEMBL document CHEMBL1155389, “Selectively nonselective kinase inhibition: striking the right balance” (J Med Chem, 2010)
Blank lines part the entries; values can stand above or below the compound they belong to.

Key:
[1] = molecular target: Bcr/Abl fusion protein (Homo sapiens, UniProt P00519); type: protein assay
Description: Inhibition of wild type Bcr-Abl

[2] = molecular target: Tyrosine-protein kinase ABL1 (Homo sapiens, UniProt P00519)
Description: Inhibition of wild type Abl

[3] = molecular target: Cyclin-dependent kinase 5 (Homo sapiens, UniProt Q00535); assay: Inhibition of CDK5
[4] = molecular target: Dual specificity tyrosine-phosphorylation-regulated kinase 1A (Homo sapiens, UniProt Q13627); assay: Inhibition of DYRK1A
[5] = Inhibition of GSK3
[6] = molecular target: Mast/stem cell growth factor receptor Kit (Homo sapiens, UniProt P10721)
[7] = molecular target: Vascular endothelial growth factor receptor 2 (Homo sapiens, UniProt P35968)
[8] = molecular target: T1, Dihydrofolate reductase (Homo sapiens, UniProt P00374); assay: Inhibition of DHFR
T1 sequence (P00374 whole entry): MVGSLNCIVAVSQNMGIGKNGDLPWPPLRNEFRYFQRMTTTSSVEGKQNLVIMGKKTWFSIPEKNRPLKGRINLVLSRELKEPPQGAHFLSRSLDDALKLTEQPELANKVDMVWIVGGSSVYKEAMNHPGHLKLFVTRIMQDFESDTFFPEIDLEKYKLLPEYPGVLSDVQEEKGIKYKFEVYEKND

[9] = Inhibition of HDAC
[10] = Inhibition of p38
[11] = molecular target: Mitogen-activated protein kinase 10 (Homo sapiens, UniProt P53779); assay: Inhibition of JNK3
[12] = molecular target: Cyclin-dependent kinase 1 (Homo sapiens, UniProt P06493); assay: Inhibition of CDK1
[13] = molecular target: Casein kinase I isoform alpha (Homo sapiens, UniProt P48729); assay: Inhibition of CK1
[14] = molecular target: Glycogen synthase kinase-3 beta (Homo sapiens, UniProt P49841); assay: Inhibition of GSK3-beta
[15] = Inhibition of PDGFR
[16] = molecular target: RAC-alpha serine/threonine-protein kinase (Homo sapiens, UniProt P31749)
[17] = molecular target: Epidermal growth factor receptor (Homo sapiens, UniProt P00533)
Chain of Epidermal growth factor receptor (P00533 whole entry): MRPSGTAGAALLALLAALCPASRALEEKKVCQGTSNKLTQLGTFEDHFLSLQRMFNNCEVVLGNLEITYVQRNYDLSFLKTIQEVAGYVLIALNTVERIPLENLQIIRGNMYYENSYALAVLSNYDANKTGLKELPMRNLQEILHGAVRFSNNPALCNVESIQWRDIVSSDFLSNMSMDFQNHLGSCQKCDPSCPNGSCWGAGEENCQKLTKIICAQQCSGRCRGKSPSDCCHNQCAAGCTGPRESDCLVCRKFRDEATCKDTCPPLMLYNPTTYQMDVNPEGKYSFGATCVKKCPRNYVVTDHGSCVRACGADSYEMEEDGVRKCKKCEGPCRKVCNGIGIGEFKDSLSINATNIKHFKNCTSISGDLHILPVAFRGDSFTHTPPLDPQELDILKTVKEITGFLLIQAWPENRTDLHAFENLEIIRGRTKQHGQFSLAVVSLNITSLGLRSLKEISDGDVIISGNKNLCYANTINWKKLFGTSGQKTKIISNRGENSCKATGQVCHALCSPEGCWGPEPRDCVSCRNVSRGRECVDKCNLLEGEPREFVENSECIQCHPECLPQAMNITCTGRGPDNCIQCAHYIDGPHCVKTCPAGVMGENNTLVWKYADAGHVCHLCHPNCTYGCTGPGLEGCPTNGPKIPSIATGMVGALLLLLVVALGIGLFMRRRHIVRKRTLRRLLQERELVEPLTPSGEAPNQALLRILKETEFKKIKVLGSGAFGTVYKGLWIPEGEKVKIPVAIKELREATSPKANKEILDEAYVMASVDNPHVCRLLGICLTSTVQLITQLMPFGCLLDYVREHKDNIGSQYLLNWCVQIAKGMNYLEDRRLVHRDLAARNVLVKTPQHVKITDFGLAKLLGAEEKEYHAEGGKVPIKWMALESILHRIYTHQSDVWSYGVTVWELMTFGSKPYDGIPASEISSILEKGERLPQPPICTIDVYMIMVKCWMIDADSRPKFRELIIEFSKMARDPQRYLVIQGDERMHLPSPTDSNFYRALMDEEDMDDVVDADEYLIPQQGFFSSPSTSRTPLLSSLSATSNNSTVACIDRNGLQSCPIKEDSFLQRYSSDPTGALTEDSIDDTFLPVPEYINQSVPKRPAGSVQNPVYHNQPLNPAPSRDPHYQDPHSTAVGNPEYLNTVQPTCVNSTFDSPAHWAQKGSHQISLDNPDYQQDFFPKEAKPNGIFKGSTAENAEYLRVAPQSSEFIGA

[18] = molecular target: Receptor tyrosine-protein kinase erbB-2 (Homo sapiens, UniProt P04626)
[19] = molecular target: Insulin-like growth factor 1 receptor (Homo sapiens, UniProt P08069)
Chain of Insulin-like growth factor 1 receptor (P08069 31-736 limits assumed): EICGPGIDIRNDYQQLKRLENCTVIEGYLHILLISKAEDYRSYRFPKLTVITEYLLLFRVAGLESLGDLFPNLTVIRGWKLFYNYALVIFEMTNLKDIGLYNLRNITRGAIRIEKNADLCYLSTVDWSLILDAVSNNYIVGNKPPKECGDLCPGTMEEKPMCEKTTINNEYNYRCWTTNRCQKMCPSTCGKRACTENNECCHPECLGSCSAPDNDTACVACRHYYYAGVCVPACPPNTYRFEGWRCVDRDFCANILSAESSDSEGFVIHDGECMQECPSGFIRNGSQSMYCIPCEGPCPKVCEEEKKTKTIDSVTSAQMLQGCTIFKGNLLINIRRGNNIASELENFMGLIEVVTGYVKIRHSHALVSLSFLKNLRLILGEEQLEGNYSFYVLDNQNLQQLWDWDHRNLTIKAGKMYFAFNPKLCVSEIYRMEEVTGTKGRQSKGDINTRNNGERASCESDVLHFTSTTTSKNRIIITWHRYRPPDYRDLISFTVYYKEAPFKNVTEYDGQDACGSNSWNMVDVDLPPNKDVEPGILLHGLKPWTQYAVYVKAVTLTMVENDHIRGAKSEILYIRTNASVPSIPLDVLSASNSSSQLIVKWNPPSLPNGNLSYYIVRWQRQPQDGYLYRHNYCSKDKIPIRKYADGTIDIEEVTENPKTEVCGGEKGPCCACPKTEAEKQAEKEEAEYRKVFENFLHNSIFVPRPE
Chain of Insulin-like growth factor 1 receptor (P08069 741-1367 limits assumed): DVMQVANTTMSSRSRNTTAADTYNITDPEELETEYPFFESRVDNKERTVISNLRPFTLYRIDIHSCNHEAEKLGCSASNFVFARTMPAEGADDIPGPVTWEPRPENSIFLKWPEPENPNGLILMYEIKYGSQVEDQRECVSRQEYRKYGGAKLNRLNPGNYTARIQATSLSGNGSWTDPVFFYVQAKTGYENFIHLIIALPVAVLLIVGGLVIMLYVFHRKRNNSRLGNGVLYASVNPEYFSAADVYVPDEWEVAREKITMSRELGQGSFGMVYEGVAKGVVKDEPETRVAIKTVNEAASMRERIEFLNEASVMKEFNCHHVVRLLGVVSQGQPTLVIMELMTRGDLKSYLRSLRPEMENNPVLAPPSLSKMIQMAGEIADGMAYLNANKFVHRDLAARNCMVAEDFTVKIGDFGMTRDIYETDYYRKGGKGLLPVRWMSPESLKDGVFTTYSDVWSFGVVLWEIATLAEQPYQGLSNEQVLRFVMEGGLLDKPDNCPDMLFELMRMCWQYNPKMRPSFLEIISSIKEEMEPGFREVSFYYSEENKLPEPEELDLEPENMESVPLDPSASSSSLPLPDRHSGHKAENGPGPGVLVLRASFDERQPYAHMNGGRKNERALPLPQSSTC

[20] = Oral bioavailability in mouse; type: ADME, organism-based; conditions: in vivo
[21] = molecular target: Voltage-gated inwardly rectifying potassium channel KCNH2 (Homo sapiens, UniProt Q12809); assay: Inhibition of ERG
[22] = molecular target: Proto-oncogene tyrosine-protein kinase Src (Homo sapiens, UniProt P12931)
[23] = molecular target: Nitric oxide synthase, inducible (Homo sapiens, UniProt P35228); assay: Inhibition of iNOS

Chain of Bcr/Abl fusion protein (P00519 whole entry, the tested form may be a part): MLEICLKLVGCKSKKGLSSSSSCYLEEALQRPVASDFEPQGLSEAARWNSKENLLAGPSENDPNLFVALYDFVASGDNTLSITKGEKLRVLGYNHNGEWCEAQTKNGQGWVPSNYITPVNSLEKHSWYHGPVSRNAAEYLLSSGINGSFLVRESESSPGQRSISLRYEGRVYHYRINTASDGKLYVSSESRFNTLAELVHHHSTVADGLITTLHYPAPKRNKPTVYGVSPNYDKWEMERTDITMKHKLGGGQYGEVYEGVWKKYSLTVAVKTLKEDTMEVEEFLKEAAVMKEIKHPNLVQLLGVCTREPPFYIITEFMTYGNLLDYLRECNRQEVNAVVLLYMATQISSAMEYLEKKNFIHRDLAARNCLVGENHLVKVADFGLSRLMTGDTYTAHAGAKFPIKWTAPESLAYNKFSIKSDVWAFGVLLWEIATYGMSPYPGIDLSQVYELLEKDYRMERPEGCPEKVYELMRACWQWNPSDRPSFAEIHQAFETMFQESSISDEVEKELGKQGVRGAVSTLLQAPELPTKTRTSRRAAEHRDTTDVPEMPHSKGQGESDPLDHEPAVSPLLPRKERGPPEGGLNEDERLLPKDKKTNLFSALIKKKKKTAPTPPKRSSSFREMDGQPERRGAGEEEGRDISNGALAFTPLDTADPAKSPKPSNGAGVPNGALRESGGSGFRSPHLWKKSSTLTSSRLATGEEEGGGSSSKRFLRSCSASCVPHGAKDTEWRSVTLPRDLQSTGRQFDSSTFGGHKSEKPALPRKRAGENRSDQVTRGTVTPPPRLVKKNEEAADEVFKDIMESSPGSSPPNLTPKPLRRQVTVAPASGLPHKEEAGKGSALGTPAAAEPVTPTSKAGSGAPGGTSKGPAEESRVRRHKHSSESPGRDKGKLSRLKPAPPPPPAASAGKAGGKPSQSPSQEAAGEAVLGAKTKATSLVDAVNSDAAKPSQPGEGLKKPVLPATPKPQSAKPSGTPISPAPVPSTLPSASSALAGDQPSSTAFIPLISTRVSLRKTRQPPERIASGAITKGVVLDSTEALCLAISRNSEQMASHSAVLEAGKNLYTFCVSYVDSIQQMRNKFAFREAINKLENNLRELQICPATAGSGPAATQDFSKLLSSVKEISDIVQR
Chain of Bcr/Abl fusion protein (P11274 whole entry, further chain, the tested form may be a part): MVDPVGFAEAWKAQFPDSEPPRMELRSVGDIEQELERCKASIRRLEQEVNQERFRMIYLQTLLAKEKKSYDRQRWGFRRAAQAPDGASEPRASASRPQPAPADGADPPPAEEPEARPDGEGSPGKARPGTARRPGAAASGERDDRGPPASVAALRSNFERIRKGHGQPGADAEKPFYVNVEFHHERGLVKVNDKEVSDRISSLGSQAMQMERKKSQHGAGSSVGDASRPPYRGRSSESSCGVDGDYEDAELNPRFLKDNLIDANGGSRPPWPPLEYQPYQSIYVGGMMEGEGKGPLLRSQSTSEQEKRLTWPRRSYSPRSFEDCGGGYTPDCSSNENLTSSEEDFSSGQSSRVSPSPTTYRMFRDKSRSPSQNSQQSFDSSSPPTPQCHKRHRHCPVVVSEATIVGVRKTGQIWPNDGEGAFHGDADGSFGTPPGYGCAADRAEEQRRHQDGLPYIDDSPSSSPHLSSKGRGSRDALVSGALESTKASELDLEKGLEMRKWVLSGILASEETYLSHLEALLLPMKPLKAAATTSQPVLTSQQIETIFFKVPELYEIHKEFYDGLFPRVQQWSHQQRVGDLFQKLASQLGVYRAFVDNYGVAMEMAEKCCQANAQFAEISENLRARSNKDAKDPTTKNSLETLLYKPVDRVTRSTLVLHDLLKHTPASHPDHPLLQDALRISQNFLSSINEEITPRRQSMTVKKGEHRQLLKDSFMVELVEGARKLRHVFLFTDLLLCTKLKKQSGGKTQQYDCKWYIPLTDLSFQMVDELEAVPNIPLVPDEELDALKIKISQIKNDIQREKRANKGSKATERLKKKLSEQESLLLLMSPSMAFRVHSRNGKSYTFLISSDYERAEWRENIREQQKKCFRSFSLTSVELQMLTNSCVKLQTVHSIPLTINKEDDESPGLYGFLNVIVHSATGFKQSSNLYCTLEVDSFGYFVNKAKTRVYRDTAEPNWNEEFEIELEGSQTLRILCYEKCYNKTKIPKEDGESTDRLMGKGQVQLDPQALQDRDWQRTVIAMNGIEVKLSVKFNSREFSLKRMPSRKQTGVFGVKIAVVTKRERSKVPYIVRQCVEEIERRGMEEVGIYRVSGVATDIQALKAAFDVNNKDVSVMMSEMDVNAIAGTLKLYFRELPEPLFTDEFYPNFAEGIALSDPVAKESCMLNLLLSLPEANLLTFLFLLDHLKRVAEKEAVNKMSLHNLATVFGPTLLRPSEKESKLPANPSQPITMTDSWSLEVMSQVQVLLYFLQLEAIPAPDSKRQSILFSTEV
Chain of Tyrosine-protein kinase ABL1 (P00519 whole entry): as the sequence (P00519 whole entry, the tested form may be a part) above

SMILES: Cc1cn(-c2cc(NC(=O)c3ccc(C)c(/C=C/N4CNc5c(NC6CC6)ncnc54)c3)cc(C(F)(F)F)c2)cn1
IC50 [1]: 8 nM | IC50 [2]: 25 nM

SMILES: N#Cc1c(N)cc2[nH]nc(N)c2c1-c1ccccc1
IC50 [3]: 11000 nM | IC50 [4]: 410 nM | IC50 [5]: 15000 nM

SMILES: C/C(=C/c1coc2nc(N)nc(N)c12)c1cccc2ccccc12
IC50 [7]: 2000 nM | IC50 [8]: 10000 nM

SMILES: Nc1ncnc2c1c(-c1cnc3[nH]ccc3c1)nn2C1CCCC1
IC50 [15]: 2 nM

SMILES: Cn1nnnc1-c1cnc(-c2ccc(CN3CCC(n4c(=O)[nH]c5ccccc54)CC3)cc2)c(-c2ccccc2)c1
IC50 [16]: 273 nM

SMILES: COc1ccccc1Cc1nc2ccc(-c3nn([C@H]4CC[C@H](C5CCN(C)CC5)CC4)c4ncnc(N)c34)cc2[nH]1
IC50 [17]: 58 nM | bioavailability [20]: 12% | IC50 [19]: 81 nM

SMILES: c1ccc(-c2cc3c(ccn4cnnc34)nc2-c2ccc(CN3CCC(c4nnc(-c5ccccn5)[nH]4)CC3)cc2)cc1
IC50 [21]: > 10000 nM

SMILES: C#Cc1cccc(Nc2ncnc3cc(OC)c(OCCCCCCC(=O)NO)cc23)c1 [CUDC-101]
IC50 [9]: 4.4 nM

Continued, values first:

IC50 [1]: 11000 nM | IC50 [6]: 43 nM
SMILES: Cc1ccc(-c2ccnc(Nc3cc(NC(=O)c4ccc(CN5CCN(C)CC5)cc4)ccc3C)n2)cn1

IC50 [1]: 2700 nM | IC50 [9]: 80 nM
SMILES: Cc1ccc(NC(=O)c2ccc(/C=C/C(=O)NO)cc2)cc1Nc1nc(-c2cccnc2)cs1

IC50 [10]: 2 nM | IC50 [11]: 26 nM
SMILES: c1ccc(-c2noc(CN3CCCCC3)c2-c2ccnc(NC3CCCCC3)n2)cc1

IC50 [12]: 220 nM | IC50 [13]: 14 nM | IC50 [14]: 4100 nM
SMILES: CCC(CO)Nc1nc(Nc2cccc(-c3ccccn3)c2)c2ncn(C(C)C)c2n1 (stereo unspecified)

IC50 [17]: 58 nM | IC50 [18]: 54 nM | IC50 [19]: 81 nM
SMILES: COCCCN1CCC([C@H]2CC[C@H](n3nc(-c4ccc5nc(Cc6ccccc6Cl)[nH]c5c4)c4c(N)ncnc43)CC2)CC1

IC50 [22]: 15 nM | IC50 [23]: 313000 nM
SMILES: Cc1cc2c(Nc3ccc4nc(N)sc4c3)c(C#N)cnc2cc1OCCN1CCCCC1

IC50 [15]: 39 nM | IC50 [9]: > 100 nM
SMILES: Cc1ccc(NC(=O)c2ccc(CN3CCN(C)CC3)cc2)cc1Nc1nccc(-c2cccnc2)n1 [IMATINIB]

IC50 [15]: 25 nM
SMILES: Cc1cn(-c2cc(NC(=O)c3ccc(C)c(Nc4nccc(-c5cccnc5)n4)c3)cc(C(F)(F)F)c2)cn1 [NILOTINIB]
